Test results as given in paper PMC2676116 (Molecular cancer therapeutics, 2009).

Tests used:
Tdp1 [1] = target: T1, Tdp1 (Homo sapiens, UniProt Q9NUW8); settings: cited from earlier work
H493R Tdp1 mutant = H493R Tdp1 mutant (Homo sapiens, UniProt Q9NUW8, H493R); assay: SCAN1 Tdp1 mutant covalent Tdp1-DNA intermediate; format: biochemical; settings: for accumulation of the covalent Tdp1-DNA intermediate: 10 μM concentration, H493R Tdp1 100 nM
Tdp1 [2] = target: T1, Tdp1; assay: Tdp1 AlphaScreen HTS assay; format: biochemical; settings: for Tdp1 inhibition (in words): AlphaScreen primary / follow-up HTS assay, Fig. 5C
Tdp1 [3] = target: T1, Tdp1; assay: Secondary radiolabel gel-based assay; format: biochemical; settings: Fig. 5B & C
CD-45 associated PTP = settings: cited from earlier work

T1 sequence (Q9NUW8 whole entry): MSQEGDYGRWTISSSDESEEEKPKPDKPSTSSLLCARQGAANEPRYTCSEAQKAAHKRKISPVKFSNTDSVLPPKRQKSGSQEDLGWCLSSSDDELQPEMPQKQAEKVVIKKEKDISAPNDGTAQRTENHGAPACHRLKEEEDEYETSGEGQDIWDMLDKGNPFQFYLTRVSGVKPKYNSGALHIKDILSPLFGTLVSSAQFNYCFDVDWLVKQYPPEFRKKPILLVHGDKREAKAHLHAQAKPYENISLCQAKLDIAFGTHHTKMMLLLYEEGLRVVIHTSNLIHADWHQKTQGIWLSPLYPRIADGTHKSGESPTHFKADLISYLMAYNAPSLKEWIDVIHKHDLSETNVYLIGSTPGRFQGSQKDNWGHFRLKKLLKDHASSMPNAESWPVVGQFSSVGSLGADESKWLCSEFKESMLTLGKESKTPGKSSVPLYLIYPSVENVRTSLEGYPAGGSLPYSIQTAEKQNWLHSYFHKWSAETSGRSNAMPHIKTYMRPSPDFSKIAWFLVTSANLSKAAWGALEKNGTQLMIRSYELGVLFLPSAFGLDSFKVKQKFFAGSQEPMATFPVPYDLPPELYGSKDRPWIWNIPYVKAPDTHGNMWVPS
Chain of H493R Tdp1 mutant (Q9NUW8 whole entry H493R): as the sequence (Q9NUW8 whole entry) above, with H493R counted along it

## N=C(N)c1ccc(-c2ccc(-c3ccc(C(=N)N)cc3)o2)cc1 [Furamidine, furamidine]
Tdp1 [1]
  concentration at which Tdp1 is inhibited (in words): micromolar concentrations

## CN(N=O)c1cc(O)ccc1O [dephostatin]
H493R Tdp1 mutant
  accumulation of the covalent Tdp1-DNA intermediate: much weaker effect
H493R Tdp1 mutant; SCAN1 Tdp1 mutant
  effect on binding of the Tdp1 DNA substrate (DNA trapping): almost no effect
Tdp1 [2]
  Tdp1 inhibition (in words): only trace inhibition
Tdp1 [3]
  Tdp1 inhibition (in words): only a trace level of inhibition
Tdp1 [3]; listed as Dephostatin
  Tdp1 inhibition (in words): only trace inhibition

## CN(N=O)c1ccc(O)c(O)c1 [methyl-3,4-dephostatin]
H493R Tdp1 mutant
  accumulation of the covalent Tdp1-DNA intermediate: completely prevented
Tdp1 [2]
  Tdp1 inhibition (in words): sub-micromolar concentration
Tdp1 [3]
  Tdp1 inhibition (in words): sub-micromolar concentration
CD-45 associated PTP
  inhibition of CD-45 associated PTP: does not inhibit

## [O]=[W](=[O])([O-])[O-] [tungstate]
Tdp1 [1]
  concentration at which Tdp1 is inhibited (in words): millimolar concentrations

## [O]=[V]([O-])([O-])[O-] [vanadate]
Tdp1 [1]
  concentration at which Tdp1 is inhibited (in words): millimolar concentrations
Tdp1 [2]; AlphaScreen assay, 384-well, Fig. 3C
  Tdp1 inhibition potency (in words): inhibition in the sub-millimolar range
